Non-standard residues stand in square brackets, D forms with d. Residues, ends and D or L forms follow the SMILES beside them. *: point of attachment. Nle = CCCC[C@H](N)C(=O)O; Cbz = O=C(OCc1ccccc1)*

Series [1] deals with Hsp72. The series can be described thus: Hsp72 induction in U937 cells. The class given is cell-based, human. Particulars: for levels of Hsp72: incubation of U937 cells with the compound. The arrangement: accumulation of Hsp72: dose or concentration left out as unconfirmed. The method, then: (§1) U937 human lymphoid tumor cells were grown in RPMI-1640 medium with 10% fetal bovine serum and were used for experiments while in the mid log-phase (3-7.105 cells/ml). 293 human cells were grown in DMEM medium with 10% fetal bovine serum and were used in transient transfection experiments while at 40% of confluence. MG132 was purchased from Biomol Res Lab, Inc, PA. aLLN was purchased from Sigma, MO. MG132 analogs were synthesized and purified by HPLC. Anti-hsp72 antibody (SPA810) was from StressGene Biotechnologies Corp (Canada), anti-p53 antibody (PAb1801) was from SantaCruz Biotechnology, Inc, Calif.

Series [2] addresses chymotrypsin-like activity of the proteasome. Particulars: cited from earlier work; for Ki: slow binding inhibitors, Vinitsky et al.
Series [3] relates to Hsp72. Kind of series: Hsp72 induction in young and old IMR90 cells. The class given is cell-based, Human. The following applies: compared with mild heat shock of young cells. The method, then: Human lung fibroblasts IMR90 which underwent either 12-17 divisions ("young" cells) or 62-67 divisions ("old" cells) were grown in MEM medium supplemented with 20% bovine fetal serum and 2mM glutamine. The cells were seeded at a density of 1.105 cells/35 mm plate and grown at 37° C. in an atmosphere of 95% air and 5% CO2. Cultures were split when cell density reached confluency. MG132 was purchased from Biomol Res Lab, Inc, PA. Anti-Hsp72 antibody (SPA810) was from StressGene Biotechnologies Corp (Canada).
(§2) Young and old cells were incubated with either […] of MG132 for 5 hours, washed with PBS and incubated in a fresh medium for an additional 12 hours.

In series [4] the test system is JNK. The series can be described thus: JNK activation by heat shock in IMR90 cells pretreated with MG132. The class given is cell-based, Human. The method, then:
as §2
JNK activity was assayed using GST-c-Jun protein as a substrate after immunoprecipitation with anti-JNK1 antibodies (sc-474, Santa Cruz Biotechnology, Inc., CA). Briefly, cells were lysed in a buffer containing 20 mm Tris-HCl, pH 7.4, 50 mm NaCl, 2 mm EDTA, 1% Triton X-100, 25 mm b-glycerophosphate, 10 mm NaF, 1 mm Na3VO4, and protease inhibitors (1 mm PMSF and 25 mg/ml each of aprotenin, pepstatin, leupeptin). After immunoprecipitation with anti-JNK1 antibody and protein A-sepharose for 2 h at 4° C. and washing, kinase reaction was carried out in a buffer containing 25 mm HEPES, 10 mm MgCl2, 2 mm DTT, 25 mm b-glycerophosphate, 2 mm Na3VO4 and 25 mCi 32P-g-ATP at 37° C. for 10 min. Then the samples were subjected to SDS-PAGE followed by transfer to a nitrocellulose membrane and autoradiography. This membrane was later used for immunoblot with anti-JNK1 antibody to ensure that equal amounts of the kinase were immunoprecipitated.

Series [5] concerns Human lung fibroblasts IMR90. The series can be described thus: Heat-induced apoptosis in IMR90 cells. Format: cell-based. The following applies: young and old IMR90 cells pretreated with MG132. As to the method: as §2
Young and old cells were subjected to heat shock at 45° C. for different time periods followed by incubation at 37° C. After 24 hours cells were stained with Hoechst 33342 according to manufacturer's specifications.

The subject of series [6] is JNK. The series can be described thus: JNK assay in U937 cells. The class given is cell-based, human. Set-up: JNK activation by the compound itself: dose or concentration left out as unconfirmed. As to the method: as §1
JNK activity was assayed using GST-c-Jun protein as a substrate after immunoprecipitation with anti-JNK1 antibodies (sc-474, Santa Cruz Biotechnology, Inc., Calif.), or anti-HA antibody for transfected JNK (Berkley Antibody Company). Briefly, cells were lysed in a buffer containing 20 mM Tris-HCl, pH 7.4, 50 mM NaCl, 2 mM EDTA, 1% Triton X-100, 25 mM b-glycerophosphate, 10 mM NaF, 1 mM Na3VO4, and protease inhibitors (1 mM PMSF and 25 mg/ml each of aprotenin, pepstatin, leupeptin). After immunoprecipitation with anti-JNK1 or anti-HA antibody and protein A-sepharose for 2 h at 4° C. and washing, kinase reaction was carried out in a buffer containing 25 mM HEPES, 10 mM MgCl2, 2 mM DTT, 25 mM b-glycerophosphate, 2 mM Na3 VO4 and 25 mCi 32P-g-ATP at 37° C. for 10 min. Samples were then subjected to SDS-PAGE followed by transfer to a nitrocellulose membrane and autoradiography. This membrane was later used for immunoblot with anti-JNK1 antibody to ensure that equal amounts of the kinase were immunoprecipitated. p38 kinase activity was determined by Western blot with polyclonal antibody (New England Biolabs, MA) specifically recognizing the phosphorylated (active) form of p38. Later the same blot was treated with anti-p38 antibody (New England Biolabs, Mass.) to assure equal loading of the kinase on different lanes.

For series [7], the system named is U937 human lymphoid tumor cells. The series can be described thus: Apoptosis / cell death of U937 cells. Format: cell-based. Set-up: induction of apoptosis by the compound itself: dose or concentration left out as unconfirmed. As to the method: as §1
PARP degradation was followed by Western blotting with anti-PARP monoclonal antibodies (C2-10, G. Poirier, Montreal, Canada). Apoptosis of 293 cells was detected by cleavage of a truncated form of Ul-70 kDa protein d12 (Romac, J. M. J. et al., Mol Cell Biol 14: 4662-4670 (1994)). Cells were transfected by calcium phosphate method with a plasmid encoding d12 tagged with T7 epitope alone or together with a dominant-negative mutant forms of SEK1 (K/R) or c-jun (TAM67). After 48 hours cells were either treated with […] MG132 or subjected to heat shock at 45° C. for 15 min. After additional 24 hours cells were lysed and cleavage of d12 was detected by Western blot with anti-T7 epitope antibody.

Series [8] relates to Hsp40. Kind of series: Hsp40 induction in U937 cells. Format: cell-based, human. Particulars: incubation of U937 cells with MG132. The method, then:
as §1

The subject of series [9] is Hsp27. Kind of series: Hsp27 induction in U937 cells. The following applies: incubation of U937 cells with MG132. The class given is cell-based, human. As to the method:
as §1

On to `CC(C)CC(C=CS(C)(=O)=O)NC(=O)C(CC(C)C)NC(=O)C(CC(C)C)NC(=O)Cc1cc(I)c(O)c([N+](=O)[O-])c1` (centres unmarked) [NIP-L3VS], for which the “levels of Hsp72” value in series [1] was “dramatically increase”.
In the case of `CC(C)C[C@H](NC(=O)[C@H](CC(C)C)NC(=O)[C@H](CC(C)C)NC(=O)OCc1ccccc1)C(N)=O` [Z-LLL-amide] (Cbz-Leu-Leu-Leu-NH2), the “levels of Hsp72” value in [1] is recorded as “did not lead to any significant induction”.
The same measure, in the same setting: then `CC(C)[C@H](O)[C@@]12NC(=O)[C@H](C)[C@@H]1OC2=O` [lactacystin-β-lacton], with “dramatically increase”.
By Ki is commonly meant the dissociation constant of the complex between target and ligand, obtained from inhibition or displacement. Turning to `CCOC(=O)C(=O)[C@H](Cc1ccccc1)NC(=O)[C@H](CC(C)C)NC(=O)[C@H](CC(C)C)NC(=O)OCc1ccccc1` [Z-Leu-Leu-Phe-COOEt], the inhibition constant (Ki) in series [2] is 53 µM.
For the compound `CC(C)C[C@H](NC(=O)OCc1ccccc1)C(=O)N[C@@H](CC(C)C)C(=O)N[C@H](C=O)Cc1ccccc1` [Z-LLF-H, (benzyloxycarbonyl)-Leu-Leu-phenylalaninal] (Cbz-Leu-Leu-Phe-aldehyde), the inhibitory constant (Ki) in [2] was 0.46 µM.
Regarding `CCCC[C@@H](C=O)NC(=O)[C@H](CC(C)C)NC(=O)[C@H](CC(C)C)NC(C)=O` [aLLN] (Ac-Leu-Leu-[Nle]-aldehyde), the “levels of Hsp72” value in series [1] is “dramatically increase”.
`CC(C)C[C@@H](C=O)NC(=O)[C@H](CC(C)C)NC(=O)[C@H](CC(C)C)NC(=O)OCc1ccccc1` [MG132] (Cbz-Leu-Leu-Leu-aldehyde): the Hsp72 levels induced entry in series [3] is on record as “exceeded those triggered in young cells by a mild heat shock”. In addition, the “JNK activation by heat shock of various severity” value in series [4] was “strongly suppressed in both young and old cells”. Also, the “protection from heat-induced apoptosis” value in series [5] is reported as “protected from apoptosis”. In addition, in series [1] (after several hours of recovery), the “accumulation of Hsp72” value is reported as “strong accumulation of Hsp72”. Also, the “levels of Hsp72” value in series [1] is listed as “dramatically increase”. Besides, the “JNK activation by the compound itself” value in series [6] (followed by withdrawal) was “activated JNK only temporally”. Besides, the “JNK activation by severe heat shock” value in series [6] (pretreated versus untreated U937 cells) is given as “much lesser activation”. Further, in series [6] (pretreatment with MG132), the “activation of JNK by TNF” value was “strongly suppressed” and the “activation of JNK by ethanol” value is recorded as “strongly suppressed”. Also, in series [7] (followed by withdrawal), the “induction of apoptosis by the compound itself” value was “insufficient to induce apoptosis”. Moreover, the “effect of long incubation on JNK and apoptosis” value in series [7] (long incubation of U937 cells) is “prolonged activation of JNK leading to apoptosis”. In series [7] (pretreatment with MG132), the TNF-induced apoptosis result is “did not rescue cells from TNF-induced apoptosis and even potentiated it”; the “cell death caused by ethanol” value was “suppressed cell death caused by ethanol”. For the same compound, in series [7] (pretreatment with MG132, about 40% without pretreatment), the “extent of cell death after heat shock” value is “negligible level”. Besides, the “induction of Hsp40” value in [8] is reported as “appeared to be induced”. Further, in series [9], the “induction of Hsp27” value is recorded as “appeared to be induced”.
As for `CC(C)C[C@@H](C=O)NC(=O)CNC(=O)CNC(=O)OCc1ccccc1` [Z-Gly-Gly-Leu-H] (Cbz-Gly-Gly-Leu-aldehyde), in series [2] (Orlowski 1990), the “inhibition of the chymotrypsin-like activity of the proteasome” value is “inhibits the chymotrypsin-like activity of the proteasome”.
